Our source for the inhibition values is patent US20080255192A1, “Methods and Compositions for Selectin Inhibition” (Wyeth, priority 2007, published 2008).

The structures appear in SMILES notation.

The target in this assay is T1, P-selectin/PSGL-1 interaction (Homo sapiens, UniProt P16109).
T1 construct: comprised of the lectin and epidermal growth factor-like (EGF) domains expressed in CHO cells; made in house; host or cells: CHO cells (P-LE)
T1 sequence (P16109 42-198): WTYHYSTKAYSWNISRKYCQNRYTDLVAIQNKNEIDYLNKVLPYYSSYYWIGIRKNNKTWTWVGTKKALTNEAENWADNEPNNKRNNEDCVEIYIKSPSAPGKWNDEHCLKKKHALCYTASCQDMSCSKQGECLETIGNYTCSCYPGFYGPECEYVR
The assay can be described thus: Biacore P-Selectin/PSGL-1 Inhibition Assay (surface plasmon resonance). As to conditions: 250 uM test compound, 500 nM P.LE, immobilized PSGL-1 19ek, 10% DMSO, pH 7.4. The assay is classed as binding. As for the experimental part: Surface plasmon resonance assays were performed on a Biacore 3000 instrument (Biacore Inc. Piscataway, N.J.) at 25° C. at a flow rate of 30 μL/minute and each assay consisted of a 60-second equilibration, a 60-μL sample injection (kinject), and a 300-second dissociation.
A purified, monomeric, truncated form of human PSGL-1, “19ek”, that contained all the necessary P-selectin binding determinants (see Goetz, et al., J. Cell Biol., 1997, 137: 509-519; and Sako, et al., Cell, 1995, 83: 323-331) was biotinylated via amine chemistry (Sulfo-NHS-LC-Biotin, Peirce) at a unique C-terminal lysine residue (see Somers, et al., Cell, 2000, 103: 467-479) and immobilized on a Biacore SA sensor chip (Biacore Inc.), using an HBS-EP buffer (Biacore Inc.), and the target 600-700 RU. The coated chip was re-equilibrated with an HBS-P buffer (Biacore Inc.) to which 1 mM CaCl2 and 1 mM MgCl2 (both from Fisher) were added to ensure sufficient calcium for the calcium-dependent interaction between the receptor and the ligand.
Test compounds were incubated for 1 hour in a 1.1× Biacore assay buffer. Each solution was centrifuged through a 0.2 µm filter, using a 96-well plate format (Millipore). Glycyrrhizin tri-sodium salt (TCI) was prepared as a positive control in parallel with the test compounds, in the same manner described above.
A soluble recombinant truncated form of human P-selectin, P-LE, comprised of the lectin and epidermal growth factor-like (EGF) domains expressed in CHO cells (see Somers, et al., Cell, 2000, 103: 467-479) was added to each filtered test compound solution. Final concentrations of reagents were 500 nM P.LE, 250 or 500 μM test compound (depending on structure) or 1 mM glycyrrhizin, 10% DMSO, and 1× Biacore buffer ([…], 150 mM NaCl, 1 mM CaCl2, and 1 mM MgCl2 (all reagents from Fisher)), with a pH of 7.4. Compounds active at 250 μM were titrated to further define activity. Test samples were supplied to the Biacore instrument in a 96-well plate.
The Biacore raw data file was exported as a text file to an Excel spreadsheet, where the buffer blanks bracketing the samples were averaged for each Biacore instrument flow cell (Fc), and subtracted from the averaged uninhibited P.LE samples and from all the other samples. The reference signal from Fcl (uncoated) was then subtracted from its corresponding active (coated) signal for each injection, a process known as double referencing (see Myszka, J. Mol. Recognit., 1999, 12(5): 279-284). The percent inhibition of binding was calculated by dividing the reference-subtracted inhibited signal by the reference-subtracted uninhibited signal, subtracting this value from 1, and multiplying the resulting value by 100. The replicate percent inhibition values were averaged and expressed as the mean ±standard deviation. The inter-experiment standard deviation of calculated percent inhibitions in the Biacore assay was ±5.
On the technique in general: Surface plasmon resonance follows binding to a sensor surface in real time, without labels.
As for `O=C(O)c1c(O)c(C2(c3ccc(Cl)cc3)CC2)nc2c(OC(F)(F)F)cccc12` [Compound 1, 2-(1-(4-chlorophenyl)cyclopropyl)-3-hydroxy-8-(trifluoromethoxy)quinoline-4-carboxylic acid], the inhibition at 250 µM was 37%.

Regarding `CCc1cccc2c(C(=O)O)c(O)c(C3(c4ccc(Cl)cc4)CC3)nc12` [Compound 2, 2-(1-(4-chlorophenyl)cyclopropyl)-8-ethyl-3-hydroxyquinoline-4-carboxylic acid], the inhibition at 250 µM worked out at 67%.

The molecule `CCC(C)c1cccc2c(C(=O)O)c(O)c(C3(c4ccc(Cl)cc4)CC3)nc12` (stereo not shown) [Compound 3, 8-sec-butyl-2-(1-(4-chlorophenyl)cyclopropyl)-3-hydroxyquinoline-4-carboxylic acid] came in with an inhibition at 250 µM of 18%.

Take `CC(C)(C)c1cccc2c(C(=O)O)c(O)c(C3(c4ccc(Cl)cc4)CC3)nc12` [Compound 4, 8-tert-butyl-2-(1-(4-chlorophenyl)cyclopropyl)-3-hydroxyquinoline-4-carboxylic acid]: the inhibition at 250 µM is at most 10%.

The molecule `O=C(O)c1c(O)c(C2(c3ccc(Cl)cc3)CC2)nc2c(Cl)cccc12` [Compound 5, 8-chloro-2-(1-(4-chlorophenyl)cyclopropyl)-3-hydroxyquinoline-4-carboxylic acid] gave an inhibition at 250 µM of 93%.

Molecule `O=C(O)c1c(O)c(C2(c3ccc(Cl)cc3)CC2)nc2c(-c3ccccc3)cccc12` [Compound 6, 2-(1-(4-chlorophenyl)cyclopropyl)-3-hydroxy-8-phenylquinoline-4-carboxylic acid] came in with an inhibition at 250 µM of 98%.

With `O=C(O)c1c(O)c(C2(c3ccc(Cl)cc3)CC2)nc2c(F)cccc12` [Compound 7, 2-(1-(4-chlorophenyl)cyclopropyl)-8-fluoro-3-hydroxyquinoline-4-carboxylic acid], the inhibition at 250 µM was at most 10%.

`O=C(O)c1c(O)c(C2(c3ccc(Cl)cc3)CC2)nc2ccccc12` [Compound 8, 2-(1-(4-chlorophenyl)cyclopropyl)-3-hydroxyquinoline-4-carboxylic acid] returned an inhibition at 250 µM of at most 10%.

In turn, `O=C(O)c1c(O)c(C2(c3ccc(Cl)cc3)CC2)nc2c(Br)cccc12` [Compound 9, 8-bromo-2-(1-(4-chlorophenyl)cyclopropyl)-3-hydroxyquinoline-4-carboxylic acid] had an inhibition at 250 µM of 46%.

Turning to `Cc1cc(C)c2nc(C3(c4ccc(Cl)cc4)CC3)c(O)c(C(=O)O)c2c1` [Compound 10, 2-(1-(4-chlorophenyl)cyclopropyl)-3-hydroxy-6,8-dimethylquinoline-4-carboxylic acid], testing at 250 µM gave an inhibition of 47%.

For the molecule `Cc1cccc2c(C(=O)O)c(O)c(C3(c4ccc(Cl)cc4)CC3)nc12` [Compound 11, 2-(1-(4-chlorophenyl)cyclopropyl)-3-hydroxy-8-methylquinoline-4-carboxylic acid], the inhibition at 250 µM worked out at 43%.

For `CCc1ccc2c(C(=O)O)c(O)c(C3(c4ccc(Cl)cc4)CC3)nc2c1` [Compound 12, 2-(1-(4-chlorophenyl)cyclopropyl)-7-ethyl-3-hydroxyquinoline-4-carboxylic acid], the inhibition at 250 µM came to 13%.

On to `Cc1ccc2c(C(=O)O)c(O)c(C3(c4ccc(Cl)cc4)CC3)nc2c1` [Compound 13, 2-(1-(4-chlorophenyl)cyclopropyl)-3-hydroxy-7-methylquinoline-4-carboxylic acid], for which the inhibition at 250 µM was at most 10%.

The molecule `CCc1cccc2c(C(=O)O)c(O)c(C3(c4ccccc4)CC3)nc12` [Compound 14, 8-ethyl-3-hydroxy-2-(1-phenylcyclopropyl)quinoline-4-carboxylic acid] showed an inhibition at 250 µM of 23%.

Regarding `CCC(C)c1cccc2c(C(=O)O)c(O)c(C3(c4ccccc4)CC3)nc12` (stereo not shown) [Compound 15, 8-sec-butyl-3-hydroxy-2-(1-phenylcyclopropyl)quinoline-4-carboxylic acid], 250 µM produced 63% inhibition.

In the case of `O=C(O)c1c(O)c(C2(c3ccc(Cl)cc3)CC2)nc2cc(Cl)ccc12` [Compound 16, 7-chloro-2-(1-(4-chlorophenyl)cyclopropyl)-3-hydroxyquinoline-4-carboxylic acid], the inhibition at 250 µM worked out at 28%.

Regarding `O=C(O)c1c(O)c(C2(c3ccc(Cl)cc3)CC2)nc2ccc(F)cc12` [Compound 17, 2-(1-(4-chlorophenyl)cyclopropyl)-6-fluoro-3-hydroxyquinoline-4-carboxylic acid], the inhibition at 250 µM was at most 10%.

For `O=C(O)c1c(O)c(C2(c3ccc(Cl)cc3)CC2)nc2ccc(Br)cc12` [Compound 18, 6-bromo-2-(1-(4-chlorophenyl)cyclopropyl)-3-hydroxyquinoline-4-carboxylic acid], the inhibition at 250 µM was 28%.

As for `Cc1ccc2nc(C3(c4ccc(Cl)cc4)CC3)c(O)c(C(=O)O)c2c1` [Compound 19, 2-(1-(4-chlorophenyl)cyclopropyl)-3-hydroxy-6-methylquinoline-4-carboxylic acid], the inhibition at 250 µM is at most 10%.

`COc1ccc2nc(C3(c4ccc(Cl)cc4)CC3)c(O)c(C(=O)O)c2c1` [Compound 20, 2-(1-(4-chlorophenyl)cyclopropyl)-3-hydroxy-6-methoxyquinoline-4-carboxylic acid] gave an inhibition at 250 µM of at most 10%.

Take `O=C(O)c1c(O)c(C2(c3ccc(Cl)cc3)CC2)nc2ccc(OC(F)(F)F)cc12` [Compound 21, 2-(1-(4-chlorophenyl)cyclopropyl)-3-hydroxy-6-(trifluoromethoxy)quinoline-4-carboxylic acid]: the inhibition at 250 µM was determined as 28%.

`O=C(O)c1c(O)c(C2(c3ccc(Cl)cc3)CC2)nc2ccc(Cl)cc12` [Compound 22, 6-chloro-2-(1-(4-chlorophenyl)cyclopropyl)-3-hydroxyquinoline-4-carboxylic acid] came in with an inhibition at 250 µM of 26%.

For `O=C(O)c1c(O)c(C2(c3ccc(Cl)cc3)CC2)nc2ccc(O)cc12` [Compound 23, 2-(1-(4-chlorophenyl)cyclopropyl)-3,6-dihydroxyquinoline-4-carboxylic acid], the inhibition at 250 µM is at most 10%.

In turn, `O=C(O)c1c(O)c(C2(c3ccc(Cl)cc3)CC2)nc2ccc(C(F)(F)F)cc12` [Compound 24, 2-(1-(4-chlorophenyl)cyclopropyl)-3-hydroxy-6-(trifluoromethyl)quinoline-4-carboxylic acid] gave an inhibition at 250 µM of 34%.

Consider `CC(C)c1ccc2nc(C3(c4ccc(Cl)cc4)CC3)c(O)c(C(=O)O)c2c1` [Compound 25, 2-(1-(4-chlorophenyl)cyclopropyl)-3-hydroxy-6-isopropylquinoline-4-carboxylic acid], for which testing at 250 µM gave an inhibition of 14%.

As to `O=C(O)c1c(O)c(C2(c3ccccc3)CC2)nc2cc(Cl)ccc12` [Compound 26, 7-chloro-3-hydroxy-2-(1-Phenylcyclopropyl)quinoline-4-carboxylic acid], the inhibition at 250 µM was at most 10%.

As for `CCc1ccc2nc(C3(c4ccccc4)CC3)c(O)c(C(=O)O)c2c1` [Compound 27, 6-ethyl-3-hydroxy-2-(1-phenylcyclopropyl)quinoline-4-carboxylic acid], the inhibition at 250 µM was at most 10%.

Turning to `CCc1ccc2c(C(=O)O)c(O)c(C3(c4ccccc4)CC3)nc2c1` [Compound 28, 7-ethyl-3-hydroxy-2-(1-phenylcyclopropyl)quinoline-4-carboxylic acid], the inhibition at 250 µM was at most 10%.

In general, inhibition refers to the change of the read-out against control, counted positive when it falls. A lower inhibition goes with little suppression.
